Where “and” joins values, the source holds several entries; their conditions need not be identical. Equal entries are not always repeated.
Columns and labels:
[1] = Solubility of peptide stocks in saline vs PBS; format: physicochemical; conditions: 20 mg/mL stocks prepared in physiological saline (0.8% NaCl)
Description: For all experiments described in this work, BALB/c mice (6-8 weeks, 20 g) were housed at the Central Animal Facility (CAF, IISc) and fed ad libitum with pellet feed and water. All animal experiments were approved by the Institutional Animal Ethics Committee, IISc (Project No. CAF/Ethics/550/2017). A detailed description of all methods used is provided in the results section. However, it should be noted that 20 mg/mL stocks for both Ω76 and Pexiganan were prepared in physiological saline (0.8% NaCl) and stored at −80 °C. […] These stocks were diluted in saline to obtain the concentration needed for the specific experiment. All intraperitoneal injections were 200 μL in volume, as larger volumes could alter peritoneal elimination kinetics.

BALB/c mice [2] = assay: Acute toxicity, single intraperitoneal dose, 5-day survival; format: in vivo, mouse; conditions: highest single intraperitoneal dose causing no mortality in BALB/c mice observed for 5 days
Description: Acute toxicity comprises the lethal effects of a single dose of a drug, rather than the combined lethal effects of multiple doses of a drug. BALB/c mice (6-8 weeks, 20 g) were injected intraperitoneally with varying doses of Ω76 and Pexiganan, at 2-fold concentration increments. 5 mice per concentration cohort were used. […] Mice treated with both Ω76 and Pexiganan display mortality that increases in a dose-dependent manner. […] However, for TOXHL, determining the maximum nonlethal dose (MND) rather than the LD50 is more important. […] Here, the MND values for Ω76 and Pexiganan are […] (Figure 1A, shown in arrows).
Figure 1. All experiments required to determine the elimination half-life using TOXHL. BALB/c mice (6-8 weeks, 20 g) were used for all experiments. (A) Acute toxicity experiments to determine survival vs. concentration of drug injected intraperitoneally. Determining the maximum nonlethal dose (MND), which is the highest concentration of a drug that causes no mortality, is essential for later noncumulative toxicity experiments. Here, the MND for Pexiganan is 32 mg/kg (blue arrow), and the MND for Ω76 is 64 mg/kg (red arrow). (B) Multi-dose (non)cumulative toxicity determination experiments. Here, mice were intraperitoneally injected with 11 doses of drug (at the MND concentration), at 12 hour intervals over the course of 5 days. […]

BALB/c mice [3] = assay: Multi-dose (non)cumulative toxicity, 11 doses at the MND at 12 hour intervals; format: in vivo, mouse
Description: Figure 1. All experiments required to determine the elimination half-life using TOXHL. BALB/c mice (6-8 weeks, 20 g) were used for all experiments. (A) Acute toxicity experiments to determine survival vs. concentration of drug injected intraperitoneally. Determining the maximum nonlethal dose (MND), which is the highest concentration of a drug that causes no mortality, is essential for later noncumulative toxicity experiments. Here, the MND for Pexiganan is 32 mg/kg (blue arrow), and the MND for Ω76 is 64 mg/kg (red arrow). (B) Multi-dose (non)cumulative toxicity determination experiments. Here, mice were intraperitoneally injected with 11 doses of drug (at the MND concentration), at 12 hour intervals over the course of 5 days. All mice treated with Pexiganan died, indicating cumulative toxicity. All mice treated with Ω76 survived, indicating noncumulative toxicity. The difference between the survival outcomes of the Ω76 and Pexiganan cohorts are statistically significant (p=7e-3, Fisher’s test). […] 5 doses at the MND were injected intraperitoneally at Δt of 15, 7.5 and 3 minutes. 67% survival (33% mortality) was observed a Δt = 3 minutes (ΔtM, highlighted in yellow). […] Note that a separate set of similar experiments was described in our previous work[19], but these experiments were only used to assess the toxicity of Ω76.
Cumulative toxicity comprises the lethal effects of multiple doses of drug when injected intraperitoneally at MND concentrations. 10 BALB/c mice (6-8 weeks, 20 g) were treated with 11 doses of Pexiganan, administered at the MND (32 mg/kg) at 12 hour intervals, over the course of 5 days. Despite Pexiganan never exceeding the MND concentration, 100% mortality was observed. […] However, this damage is not reversed within the dosing interval timespan (12 hours), and additional doses only serve to incrementally increase the total damage caused to mice, until a threshold is reached and death occurs.
Figure 2. Peritonea of BALB/c mice (6-8 weeks, 20 g) treated with Ω76 and Pexiganan for (non)cumulative toxicity experiments. […]

In the case of Pexiganan, the “solubility in phosphate buffered saline (PBS) compared with physiological saline” value [1] is reported as “poorer solubility”, the “maximum nonlethal dose (MND)” value (BALB/c mice [2]) is reported as 64 mg/kg and 32 mg/kg and the “survival outcome after 11 doses at the MND” value (BALB/c mice [3]; 10 BALB/c mice, 11 intraperitoneal doses at the MND (Pexiganan 32 mg/kg, Ω76 64 mg/kg), 12 hour intervals over 5 days) is reported as “died”. The “mortality after 11 doses at the MND” value (BALB/c mice [3]; 10 BALB/c mice, 11 intraperitoneal doses of Pexiganan at the MND (32 mg/kg), 12 hour intervals over 5 days) was 100% and the “autopsy finding, peritoneal organs” value (BALB/c mice [3]; BALB/c mice, intraperitoneal doses at the MND at 12 hour intervals (Ω76 11 doses of 64 mg/kg over 5 days; Pexiganan 32 mg/kg until mortality)) was “intestinal inflammation is clearly visible”.

Source: paper doi:10.1101/761585v1, “A simple method to determine the elimination half-life of drugs displaying noncumulative toxicity” (bioRxiv, 2019)
